In patent publication US8729053B2, “Nuclear factor kappa B pathway inhibitor composition and use of same” (The United States of America, as represented by the …, priority 2008, dated 2014):
Counter-ions that a name gives are not always drawn.

Columns and labels:
AP-1 = assay: EMSA of AP-1 DNA binding, HEK293 nuclear fractions; type: cell-based; conditions: 17 μM
Method: EMSA was performed with the nuclear fraction of HEK293 cell using LightShift Chemiluminescent EMSA Kit (Pierce Biotechnology, Rockford, Ill.) according to the manufacture's instruction. Oligonucleotides for NFκB, NF-1, and AP-1 were labeled with biotin by Biotin 3′ End DNA labeling Kit (Pierce Biotechnology, Rockford, Ill.). The quantified 15 μg of nuclear extracts were incubated for 20 mins with 1 μg/μl Poly (dI.dC), biotin end-label target nucleotides in 20 μl binding buffer DNA-protein complexes were fractionated on 6% a polyacrylamide gel and transferred to a nylon membrane. The membranes were processed to detect biotin-label DNA by cross-linking, blocking, and detection incubations. Results were obtained by X-ray film exposure for 10 sec and development. The target sequences of oligonucleotides for NFκB, NF-1, and AP-1 are as follows;
To determine whether the effect of compound I on nuclear translocation of NFκB leads to inhibited binding of NFκB proteins to DNA, EMSA in HEK293 cells was performed. […] TPA-induced binding complex was attenuated by pretreatment with compound I in a dose-dependent manner (lanes 5-9). This binding inhibition parallels the inhibition of luciferase reporter transactivation and inhibition of nuclear translocation of NFκB proteins. […]

uPAR promoter = uPAR promoter luciferase reporter assay in HEK293 cells; type: cell-based, human; conditions: TPA 10 ng/ml 18 hours
Method: All expression plasmids were transiently transfected into HEK293 cells in a 96-well plate (0.1 μg/well) by using Effectene transfection reagent (Qiagen, Valencia, Calif.) according to the manufacturer's manual. HEK293 cells were maintained in Dulbecco's modified Eagle medium (Sigma, St. Louis, Mo.) supplemented with 10% fetal bovine serum (Atlanta Biologicals, Lawrenceville, Ga.) and incubated at 37° C. in a 5% CO2 incubator. After 24 hrs incubation, the medium was changed to DMEM with 0.2% FBS, and the transfectants were exposed to various concentrations of compound I and TPA (10 ng/ml). Cells were lysed with passive lysis buffer and the luciferase assay was performed using the Firefly-Luciferase reporter assay system (Promega, Madison, Wis.) and MLX Luminometer (Dynex Technology, Chantilly, Va.).
Three different luciferase reporter genes, AP-1 reporter containing four times TRE consensus originated from GCN4 and SRE reporter purchased from Stratagene (La Jolla, Calif.) respectively are as described previously (Suzukawa et al., Environ. Health Perspect., 2002, 110, 865-70). […]
Inhibition of NFκB transactivation would be expected to result in suppressed expression of genes whose transcription depends on NFκB. Quantitative RT-PCR was used to measure endogenous levels of IL-6 mRNA, transcribed from a gene whose transcription depends on NFκB but not AP-1. […]

cell proliferation = assay: Cell proliferation; type: cell-based
p65 = assay: Immunoblot of phosphorylated p65; type: cell-based
Method: To measure endogenous level of several proteins in response to TPA induction and compound I, HEK293 cells were lysed with RIPA buffer (10 mM Tris-HCl pH 7.5, 1 mM EDTA, 0.1% sodium dodecyl sulfate, 0.1% deoxycholate, and protease inhibitor). Whole cell extracts were subjected to immunoblot analysis with the following antibodies: p65 (F-6), p50 (E-10), p52 (C-5), RelB (C-19), IκBα (C-21), PCNA (F-2) were obtained from Santa Cruz Biotechnology (Santa Cruz, Calif.). IKKα, IKKβ, IKKγ, phospho-IκBα, phospho-IKKα/β, phospho-IKKγ, pohospho-Stat3 (Tyr 705 and Ser 727), phospho-p65 (Ser536 and Ser276), phospho-p44/42, phospho-JNKs were purchased from Cell Signaling (Danvers, Mass.), and α-tubulin from Sigma (St. Louis, Mo.). Nuclear and cytoplasmic extracts were prepared with HEK293 cells by NE-PER Nuclear and Cytoplasmic Extraction Reagents (Pierce Biotechnology, Rockford, Ill.) according to the manufacturer's protocol.

- AP-1 DNA binding activity (AP-1): little or no effect
SMILES: Cc1cc(N)ccc1N=Nc1ccc(S(=O)(=O)CCOS(=O)(=O)O)cc1 [compound I, 2-(4-((4-amino-2-methylphenyl)diazenyl)phenylsulfonyl)ethyl hydrogen sulfate]
- uPAR luciferase activity (uPAR promoter): dose-dependent inhibition
- Suppression of cell proliferation (cell proliferation): does not suppress
- Phosphorylation of p65 at Ser536 (p65): inhibited
- Phosphorylation of p65 at Ser536 and Ser276 (p65; FIG. 7): decreased
